ChEMBL document CHEMBL5523759, “Discovery of Novel HDAC3 Inhibitors with PD-L1 Downregulating/Degrading and Antitumor Immune Effects” (J Med Chem, 2024)
Activity calls are given as the source filed them. The rule behind the calls is not given here.

Key:
Jurkat = test: Antiproliferative activity against human Jurkat T cells assessed as reduction in cell viability measured for 48 hrs by CCK-8 assay; format: functional, cell-based
B16-F10 [1] = test: Antiproliferative activity against mouse B16-F10 cells assessed as reduction in cell viability measured for 48 hrs by MTT assay; format: functional, cell-based; conditions: B16-F10, 48 h
HepG2 = test: Antiproliferative activity against human HepG2 cells assessed as reduction in cell viability measured for 48 hrs by MTT assay; format: functional, cell-based; conditions: HepG2, 48 h
Histone deacetylase 1 = Histone deacetylase 1 (Homo sapiens, UniProt Q13547); test: Inhibition of human recombinant HDAC1 using Ac-Leu-Gly-Lys (Ac)-AMC as substrate preincubated with compound for 10 mins followed by substrate addition and measured after 45 mins by TECAN microtiter plate reader analysis
Sequence of Histone deacetylase 1 (Q13547 whole entry): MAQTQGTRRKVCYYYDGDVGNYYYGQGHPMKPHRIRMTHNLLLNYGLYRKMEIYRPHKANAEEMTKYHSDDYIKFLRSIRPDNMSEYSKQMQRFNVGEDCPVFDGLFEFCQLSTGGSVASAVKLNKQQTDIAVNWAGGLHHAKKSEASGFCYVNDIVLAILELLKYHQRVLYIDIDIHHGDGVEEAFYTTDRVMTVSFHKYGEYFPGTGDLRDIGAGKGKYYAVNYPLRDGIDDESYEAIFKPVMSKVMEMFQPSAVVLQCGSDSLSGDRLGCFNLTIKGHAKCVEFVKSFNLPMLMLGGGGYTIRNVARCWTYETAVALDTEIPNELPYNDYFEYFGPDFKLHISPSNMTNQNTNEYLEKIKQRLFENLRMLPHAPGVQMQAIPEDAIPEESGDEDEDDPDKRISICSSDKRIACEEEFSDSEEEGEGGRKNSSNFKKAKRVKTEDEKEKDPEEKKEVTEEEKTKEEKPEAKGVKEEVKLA

Histone deacetylase 3 = Histone deacetylase 3 (Homo sapiens, UniProt O15379); test: Inhibition of human recombinant HDAC3 using Ac-Leu-Gly-Lys (Ac)-AMC as substrate preincubated with compound for 10 mins followed by substrate addition and measured after 45 mins by TECAN microtiter plate reader analysis
Sequence of Histone deacetylase 3 (O15379 whole entry): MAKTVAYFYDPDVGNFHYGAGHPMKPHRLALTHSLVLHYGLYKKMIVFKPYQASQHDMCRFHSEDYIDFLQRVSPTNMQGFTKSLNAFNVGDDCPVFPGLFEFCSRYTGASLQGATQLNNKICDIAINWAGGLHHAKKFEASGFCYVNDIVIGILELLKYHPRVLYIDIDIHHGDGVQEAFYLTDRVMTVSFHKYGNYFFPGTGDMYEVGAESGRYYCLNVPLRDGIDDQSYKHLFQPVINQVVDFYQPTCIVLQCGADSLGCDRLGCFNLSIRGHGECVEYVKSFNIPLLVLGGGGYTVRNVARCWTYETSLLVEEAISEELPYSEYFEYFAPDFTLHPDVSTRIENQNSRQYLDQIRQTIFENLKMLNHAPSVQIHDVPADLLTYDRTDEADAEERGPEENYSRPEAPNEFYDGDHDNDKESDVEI

[2] = target: T1, Protein deacetylase HDAC6 (Homo sapiens, UniProt Q9UBN7); test: Inhibition of human recombinant HDAC6 using Ac-Leu-Gly-Lys (Ac)-AMC as substrate preincubated with compound for 10 mins followed by substrate addition and measured after 45 mins by TECAN microtiter plate reader analysis
T1 sequence (Q9UBN7 whole entry): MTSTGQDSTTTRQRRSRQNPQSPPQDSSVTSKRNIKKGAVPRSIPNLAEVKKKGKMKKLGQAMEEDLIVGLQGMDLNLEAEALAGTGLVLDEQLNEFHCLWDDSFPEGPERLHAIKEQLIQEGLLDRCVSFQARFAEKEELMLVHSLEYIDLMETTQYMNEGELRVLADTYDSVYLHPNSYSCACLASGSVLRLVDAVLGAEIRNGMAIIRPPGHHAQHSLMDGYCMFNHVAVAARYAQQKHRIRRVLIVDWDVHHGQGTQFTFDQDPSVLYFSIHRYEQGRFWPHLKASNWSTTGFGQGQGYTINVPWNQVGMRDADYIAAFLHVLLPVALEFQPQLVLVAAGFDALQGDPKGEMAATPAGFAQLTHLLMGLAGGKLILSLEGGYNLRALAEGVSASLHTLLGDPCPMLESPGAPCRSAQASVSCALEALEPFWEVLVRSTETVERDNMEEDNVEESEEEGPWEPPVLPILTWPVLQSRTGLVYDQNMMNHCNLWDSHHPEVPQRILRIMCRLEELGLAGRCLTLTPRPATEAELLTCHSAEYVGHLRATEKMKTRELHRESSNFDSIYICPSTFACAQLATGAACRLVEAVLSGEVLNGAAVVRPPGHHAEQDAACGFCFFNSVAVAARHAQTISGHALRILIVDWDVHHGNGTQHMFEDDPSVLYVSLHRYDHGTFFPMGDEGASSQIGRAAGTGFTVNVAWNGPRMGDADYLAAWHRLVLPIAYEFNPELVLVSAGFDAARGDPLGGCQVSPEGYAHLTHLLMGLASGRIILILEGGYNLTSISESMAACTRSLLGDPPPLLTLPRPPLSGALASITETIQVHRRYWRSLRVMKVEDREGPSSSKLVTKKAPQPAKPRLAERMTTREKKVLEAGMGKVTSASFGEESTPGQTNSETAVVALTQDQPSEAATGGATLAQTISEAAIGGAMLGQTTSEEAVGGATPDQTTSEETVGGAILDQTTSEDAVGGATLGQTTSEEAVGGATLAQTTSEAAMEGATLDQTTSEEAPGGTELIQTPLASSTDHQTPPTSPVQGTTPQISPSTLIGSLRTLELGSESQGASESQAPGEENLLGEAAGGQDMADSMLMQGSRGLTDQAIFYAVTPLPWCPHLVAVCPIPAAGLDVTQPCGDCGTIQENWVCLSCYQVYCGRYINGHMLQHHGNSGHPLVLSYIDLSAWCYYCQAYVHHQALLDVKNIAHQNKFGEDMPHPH

Histone deacetylase 7 = target: T2, Histone deacetylase 7 (Homo sapiens, UniProt Q8WUI4); test: Inhibition of human recombinant HDAC7 using Ac-Leu-Gly-Lys (Tfa)-AMC as substrate preincubated with compound for 10 mins followed by substrate addition and measured after 45 mins by TECAN microtiter plate reader analysis
T2 sequence (Q8WUI4 whole entry): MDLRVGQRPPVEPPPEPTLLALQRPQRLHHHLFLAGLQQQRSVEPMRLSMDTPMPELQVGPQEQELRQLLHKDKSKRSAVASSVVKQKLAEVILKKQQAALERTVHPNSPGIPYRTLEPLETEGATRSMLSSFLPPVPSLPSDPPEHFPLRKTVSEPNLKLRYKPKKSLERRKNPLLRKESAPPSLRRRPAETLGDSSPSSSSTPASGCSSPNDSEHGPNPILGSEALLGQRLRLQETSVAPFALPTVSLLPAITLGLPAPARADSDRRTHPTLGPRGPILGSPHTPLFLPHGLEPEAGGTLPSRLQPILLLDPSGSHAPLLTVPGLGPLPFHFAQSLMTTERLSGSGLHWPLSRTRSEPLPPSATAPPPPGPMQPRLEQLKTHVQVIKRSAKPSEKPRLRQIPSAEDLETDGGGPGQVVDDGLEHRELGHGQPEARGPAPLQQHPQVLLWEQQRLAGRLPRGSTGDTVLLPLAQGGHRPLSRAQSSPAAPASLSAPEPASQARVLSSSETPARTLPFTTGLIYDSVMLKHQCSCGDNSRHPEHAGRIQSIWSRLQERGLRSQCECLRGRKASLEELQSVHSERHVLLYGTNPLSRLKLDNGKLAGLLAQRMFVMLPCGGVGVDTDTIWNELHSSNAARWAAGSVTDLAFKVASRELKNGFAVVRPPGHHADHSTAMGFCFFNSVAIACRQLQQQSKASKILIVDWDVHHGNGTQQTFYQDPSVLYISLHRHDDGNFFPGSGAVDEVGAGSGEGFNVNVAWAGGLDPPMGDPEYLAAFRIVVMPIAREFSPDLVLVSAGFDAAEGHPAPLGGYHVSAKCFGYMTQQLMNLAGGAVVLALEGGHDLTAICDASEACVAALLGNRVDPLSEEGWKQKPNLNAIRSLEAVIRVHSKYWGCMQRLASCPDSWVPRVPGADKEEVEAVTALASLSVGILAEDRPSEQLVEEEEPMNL

Histone deacetylase 8 = target: T3, Histone deacetylase 8 (Homo sapiens, UniProt Q9BY41); test: Inhibition of human recombinant HDAC8 using Ac-Leu-Gly-Lys (Tfa)-AMC as substrate preincubated with compound for 10 mins followed by substrate addition and measured after 45 mins by TECAN microtiter plate reader analysis
T3 sequence (Q9BY41 whole entry): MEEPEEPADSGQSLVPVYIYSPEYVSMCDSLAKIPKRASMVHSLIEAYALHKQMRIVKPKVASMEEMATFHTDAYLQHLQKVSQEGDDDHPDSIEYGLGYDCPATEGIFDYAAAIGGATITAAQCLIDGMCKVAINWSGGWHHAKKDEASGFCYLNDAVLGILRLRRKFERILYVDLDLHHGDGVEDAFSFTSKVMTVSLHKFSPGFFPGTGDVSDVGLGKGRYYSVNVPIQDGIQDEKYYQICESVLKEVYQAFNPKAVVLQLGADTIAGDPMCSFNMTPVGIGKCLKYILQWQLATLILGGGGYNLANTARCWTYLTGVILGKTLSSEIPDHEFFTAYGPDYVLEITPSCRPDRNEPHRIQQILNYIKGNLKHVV

HCT-116 = test: cells; conditions: Homo sapiens, HCT-116, 48 h
Description: Antiproliferative activity against human HCT-116 cells assessed as reduction in cell viability measured for 48 hrs by MTT assay

MCF7 = test: cells; conditions: Homo sapiens, MCF7, 48 h
Description: Antiproliferative activity against human MCF7 cells assessed as reduction in cell viability measured for 48 hrs by MTT assay

B16-F10 [3] = test: Antitumor activity against mouse B16-F10 cells implanted in C57BL/6 mouse model assessed as tumor growth inhibition at 25 mg/kg, IG administered for 9 days; format: functional; conditions: B16-F10, po, 216 h, time 9 day, read-out: TGI
B16-F10 [4] = test: Antitumor activity against mouse B16-F10 cells implanted in C57BL/6 mouse model assessed as upregulation of Ac-H3 expression at 25 mg/kg, po administered for 9 days by Western blot analysis; format: functional, organism-based; conditions: time 9.0 day
B16-F10 [5] = test: Antitumor activity against mouse B16-F10 cells implanted in C57BL/6 mouse model assessed as increase in Ac-H3 expression in tumor at 25 mg/kg, po administered for 9 days by Western blot analysis; format: functional, organism-based; conditions: time 9.0 day
B16-F10 [6] = test: Antitumor immunity against mouse B16-F10 cells implanted in C57BL/6 mouse model assessed as increase in CD3+ CD4+ T cells at 25 mg/kg, po administered for 9 days (reference value: 1.50%); format: functional; conditions: time 9 day
B16-F10 [7] = test: Antitumor immunity against mouse B16-F10 cells implanted in C57BL/6 mouse model assessed as increase in CD3+ CD8+ T cells at 25 mg/kg, po administered for 9 days (reference value: 1.01%); format: functional; conditions: time 9 day

| SMILES | IC50 (Jurkat) | IC50 (B16-F10 [1]) | IC50 (HepG2) | IC50 (Histone deacetylase 1) | IC50 [2] | IC50 (Histone deacetylase 7) | IC50 (Histone deacetylase 8) | IC50 (HCT-116) | IC50 (MCF7) | other results |
| --- | --- | --- | --- | --- | --- | --- | --- | --- | --- | --- |
| Nc1ccccc1NC(=O)CCCC(=O)Nc1ccc(-c2ncc(CNc3ccccc3)s2)cc1 | 1.02 µM | – | – | – | – | – | – | – | – | – |
| Nc1ccccc1NC(=O)/C=C/c1ccc(-c2ncc(CNc3ccccc3)s2)cc1 | 0.2 µM | 3.49 µM | 0.9 µM | 0.31 µM | 8.01 µM | > 10 µM | > 10 µM | 7.45 µM | 4.9 µM | IC50 (Histone deacetylase 3): 0.11 µM |
| Nc1ccccc1NC(=O)CCNC(=O)c1ncc(CNc2ccccc2)s1 | 5.15 µM | – | – | – | – | – | – | – | – | – |
| Nc1ccccc1NC(=O)c1ncc(CNc2ccccc2)s1 | 0.4 µM | – | – | – | – | – | – | – | – | – |
| CCCNNC(=O)CCNC(=O)c1ncc(CNc2ccccc2)s1 | 4.77 µM | – | – | – | – | – | – | – | – | – |
| Nc1ccccc1NC(=O)CNC(=O)c1ncc(CNc2ccccc2)s1 | > 10 µM | – | – | – | – | – | – | – | – | – |
| Nc1ccccc1NC(=O)/C=C/c1ccc(CNC(=O)c2ccc(-c3ncc(CNc4ccccc4)s3)cc2)cc1 | 0.1 µM | 8.94 µM | 0.74 µM | 0.72 µM | > 10 µM | > 10 µM | 9.08 µM | > 10 µM | 4.44 µM | IC50 (Histone deacetylase 3): 0.14 µM |
| Nc1ccccc1NC(=O)c1ccc(CNC(=O)c2ncc(CNc3ccccc3)s2)cc1 | 0.24 µM | 3.22 µM | 0.51 µM | 0.23 µM | > 10 µM | > 10 µM | > 10 µM | 1.59 µM | > 10 µM | – |
| Nc1ccccc1NC(=O)c1ccc(NC(=O)c2ccc(-c3ncc(CNc4ccccc4)s3)cc2)cc1 | 0.07 µM | 1.6 µM | > 10 µM | 0.64 µM | 9.1 µM | > 10 µM | > 10 µM | 1.05 µM | 3.19 µM | IC50 (Histone deacetylase 3): 0.094 µM |
| Nc1ccccc1NC(=O)CC(=O)Nc1ccc(-c2ncc(CNc3ccccc3)s2)cc1 | > 1.22 µM | – | – | – | – | – | – | – | – | – |
| Cc1c(COc2cc(OCc3cccc(C#N)c3)c(CNC(C)(C)C(=O)O)cc2Cl)cccc1-c1ccccc1 | – | – | – | – | – | – | – | – | – | inhibition in vivo at 25 mg/kg (B16-F10 [3]): 67%; Activity (B16-F10 [4]): inactive; Activity (B16-F10 [5]): inactive; Activity (B16-F10 [6]): 3.58%; Activity (B16-F10 [7]): 3.28% |
| CCCNNC(=O)c1ccc(NC(=O)c2ncc(CNc3ccccc3)s2)cc1 | 0.55 µM | – | – | – | – | – | – | – | – | – |
| CCCNNC(=O)CCCNC(=O)c1ncc(CNc2ccccc2)s1 | 4.88 µM | – | – | – | – | – | – | – | – | – |
| Nc1ccccc1NC(=O)c1ccc(CNC(=O)c2ccc(-c3ncc(CNc4ccccc4)s3)cc2)cc1 | 0.08 µM | 2.98 µM | 0.37 µM | 0.39 µM | 8.31 µM | > 10 µM | > 10 µM | 0.92 µM | 4.24 µM | IC50 (Histone deacetylase 3): 0.14 µM |
